In PubChem BioAssay (NCI):
Several values for one entry are separate records, joined by “and”; a condition that tells them apart may be missing. Identical values can stand only once.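 Tested at 5 concentrations; 48 h exposure; 96-well plates; endpoints linearly interpolated, else capped at highest concentration. GI50 marks 50% less growth. TGI denotes the concentration required for complete inhibition of growth.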

What was measured:
Assay in all cases: NCI anticancer screen, dose series, 48 h
[1] = tested on: IGROV1 ovarian
[2] = tested on: LOX IMVI melanoma
[3] = tested on: COLO 205 colon
[4] = tested on: OVCAR-4 ovarian
[5] = tested on: M14 melanoma
[6] = tested on: ACHN renal
[7] = tested on: NCI-H460 lung
[8] = tested on: MOLT-4 leukemia
[9] = tested on: HCT-116 colon
[10] = tested on: MDA-MB-435

Structure (SMILES)	TGI [1]	TGI [2] [µM]	TGI [3]	TGI [4] [µM]	TGI [5]	TGI [6]	TGI [7] [µM]	TGI [8]	TGI [9]	GI50 [1] [µM]	GI50 [3] [µM]	GI50 [4] [µM]	GI50 [5] [µM]	GI50 [6] [µM]	GI50 [7] [µM]	GI50 [8] [µM]	GI50 [9] [µM]	GI50 [10] [µM]	TGI [10]	GI50 [2] [µM]
O=C1C2C3CC(C4C5C=CC(C5)C34)C2C2C3CC(C12)C1C2C=CC(C2)C31 (centres undefined)	> 100 µM	> 100	> 100 µM	> 100	> 100 µM	> 100 µM	> 100	> 100 µM	> 100 µM											
COc1ccc(OC)c(/C=N/N=C(\N)NO)c1	> 100 µM	> 100	66.2 µM	> 100	89.4 µM	81.4 µM	> 100		> 100 µM											
Cc1cccc(C)c1N1C(=O)C(=O)C(c2nc3ccccc3s2)/C(=N\N)C1=O (centres undefined)	> 100 µM	> 100	> 100 µM	> 100	> 100 µM	> 100 µM	> 100	> 100 µM	> 100 µM											
CNS(=O)(=O)NNS(=O)(=O)c1ccc(OC)cc1	> 100 µM	> 100	> 100 µM	> 100	> 100 µM	> 100 µM	> 100	> 100 µM	> 100 µM											
COc1cc(/C=N/N=C(\N)NO)c(Cl)cc1O	> 100 µM	> 100	> 100 µM	> 100		> 100 µM		> 100 µM	> 100 µM											
CC(=O)[CH-]C(=O)c1ccccc1.CC(=O)[CH-]C(=O)c1ccccc1.CC(=O)[CH-]C(=O)c1ccccc1.[Nd+3].[OH3+]	> 100 µM		> 100 µM	> 100	> 100 µM	> 100 µM	> 100	> 100 µM	> 100 µM	97.9	47.3	93.8	43.2	48.6	42.8	28.4	46.7			
NC1=NN(c2ccccc2)C(=O)C1C(=O)C(=O)Nc1ccc(Cl)c(Cl)c1 (centres undefined)	> 100 µM		> 100 µM	> 100	> 100 µM	> 100 µM	> 100	> 100 µM	> 100 µM											
CN(/N=C\c1ccnc2ccccc12)c1ccc([N+](=O)[O-])cc1	> 100 µM	> 100	> 100 µM		> 100 µM	> 100 µM		> 100 µM	> 100 µM											
CC(C)CCCCCCCCCCCCC(=O)NCC(=O)NC1C(O)C(O)C(Nc2ncnc3nc[nH]c23)OC1C(O)CO (centres undefined)	0.00755 µM and 0.0084 µM		0.00316 µM and 0.00155 µM and 0.00526 µM					0.153 µM and 0.43 µM		0.005		< 1e-05	< 1e-05	< 1e-05				< 1e-05		
COc1c(-c2ccccc2)nc2ccc(Oc3ccccc3)nn12	> 100 µM	> 100	> 65 µM	> 71.3	> 100 µM	> 100 µM	> 100	> 64.7 µM	> 100 µM											
O=C(Nc1ccc(Cl)c(Cl)c1)C(=O)C(C(=O)c1ccccc1-c1ccccc1)C1OC(=O)c2ccccc21 (centres undefined)	73.5 µM	28.9	30.2 µM		30.1 µM	> 100 µM	62.6	> 100 µM	22.3 µM											
O=C1/C(=C/c2ccc(Cl)cc2)CNC/C1=C\c1ccc(Cl)cc1	4.15 µM and 3.49 µM	4.02	4.25 µM and 8.35 µM		8.7 µM	4.17 µM and 7.08 µM			3.07 µM and 3.85 µM		2.61	1.52							13.7 µM	
COC(=O)[C@@H]1Cc2c([nH]c3ccccc23)[C@H](c2ccccc2)N1	92 µM	> 100	38.6 µM	> 100	79.6 µM	> 100 µM	> 100	> 100 µM	> 100 µM											
Nc1c(Cl)ncnc1NCCCCCCCCCCCCNc1ncnc(Cl)c1N	> 100 µM	6.52	21.9 µM	> 100	57.3 µM		10.1		6.05 µM											
COC1(OC)C2(Cl)C(Cl)=C(Cl)C1(Cl)C1C2C2CC1(C(=O)O)c1ccccc12 (centres undefined)	69.5 µM	32	51.1 µM	34.6	32 µM	> 100 µM	47.8	43.3 µM	33.8 µM											
C=CCC(N[C@H](CO)c1ccccc1)c1cn(Cc2ccccc2Cl)c(=O)n(Cc2ccccc2Cl)c1=O (some centres undefined)	66.3 µM	19	86.8 µM	> 100	23.1 µM	39 µM	> 100		20.8 µM	13.5	14.7	26.6	6.19	4.78	18.3		6.44	15.9	38.6 µM	6.27
COC1OC2COC(C)(C)OC2C(OC(C)=O)C1NC(=O)N(CCCl)N=O (centres undefined)	> 100 µM	> 100	> 100 µM	> 100	> 100 µM	> 100 µM	> 100	> 100 µM	> 100 µM											
O=C1c2ccccc2C2CCC1c1ccccc12 (centres undefined)	> 100 µM	> 100	46.8 µM	76.1	> 100 µM	> 100 µM	> 100	45.7 µM	46.4 µM											
O=C(Nc1ccc(Cl)cc1Cl)OC(Cn1cncn1)c1ccc(Cl)cc1Cl (centres undefined)	31.4 µM	29.9	31.5 µM	28	32.1 µM	29 µM		> 100 µM	27.1 µM											
O=C(/C=C\c1cccc2ccccc12)c1ccc(Cl)cc1Cl	> 100 µM		45.5 µM	> 100	41.3 µM	32.6 µM	51.6	63.9 µM	33.6 µM											

Structure (SMILES)	TGI [1]	TGI [2] [µM]	TGI [3]	TGI [4] [µM]	TGI [5]	TGI [6]	TGI [7] [µM]	TGI [8]	TGI [9]	GI50 [1] [µM]	GI50 [3] [µM]	GI50 [4] [µM]	GI50 [5] [µM]	GI50 [6] [µM]	GI50 [7] [µM]	GI50 [8] [µM]	GI50 [9] [µM]	GI50 [10] [µM]	TGI [10]	GI50 [2] [µM]
COc1ccc([C@@]23Oc4cc(OC)cc(OC)c4[C@]2(O)[C@H](O)[C@H](C(N)=O)[C@H]3c2ccccc2)cc1	0.0641 µM and < 0.0206 µM		0.0286 µM and 0.0116 µM		0.0233 µM and < 0.01 µM	0.0474 µM and 0.0476 µM	0.19	> 100 µM	0.488 µM			0.0142							0.0793 µM and 0.631 µM	
N#CC(C(=O)/C(=N\NC(N)=O)C(C#N)c1ccccc1)c1ccccc1 (centres undefined)	> 100 µM		> 100 µM	> 100	> 100 µM	> 100 µM	> 100	> 100 µM	> 100 µM											
CC(=O)[C@H]1CCC2[C@@H]3CC=C4C[C@@H]([O-])CC[C@]4(C)C3CC[C@@]21C.CC(=O)[C@H]1CCC2[C@@H]3CC=C4C[C@@H]([O-])CC[C@]4(C)C3CC[C@@]21C.CC(=O)[CH-]C(=O)c1ccccc1.CC(=O)[CH-]C(=O)c1ccccc1.Cl.[Ti+4] (some centres undefined)	87.1 µM	> 100	> 100 µM	> 100	46.1 µM	99.1 µM	52.6	> 100 µM	> 100 µM	25.9	39.3	62	18.8	22.8	13.9	38.1	25.7			29
COc1cccc(Nc2nc3ccccc3c3occc23)c1	25.9 µM	8.39	22 µM	29.8	28.6 µM	33.6 µM	> 100		34.4 µM	4.95	9.49	11.2	13.9	10.8	25.2		15.3	10.7	22.6 µM	2.32
N/N=C(/Cc1nc2ccc(C(=O)c3ccccc3)cc2[nH]c1=O)C(=O)Nc1ccc([N+](=O)[O-])cc1[N+](=O)[O-]	> 100 µM	> 100	> 100 µM	71.5	> 100 µM	> 100 µM	> 100	> 100 µM	> 100 µM	> 100	> 100		> 100	> 100	> 100	> 100	> 100			> 100
COc1ccc(/C=C2/SC(Nc3nc(-c4nc(NC5=NC(=O)/C(=C\c6ccc(OC)cc6)S5)sc4C)c(C)s3)=NC2=O)cc1	> 50 µM	9.27	> 50 µM		2.36 µM	9.74 µM	> 31.7	> 50 µM	9.78 µM	5.26	2.42		0.499	0.838	1.4	8.87	1.2	0.143	0.633 µM	0.935
CC1NC(=O)C2=C1C(=O)NC(=O)C2 (centres undefined)	> 100 µM	> 100			> 100 µM	> 100 µM	> 100		> 100 µM	> 100			> 100	> 100	> 100		> 100	> 100	> 100 µM	> 100
Cc1cc(C)c(-c2c(N)cc(Br)cc2Br)c(N)c1	22.7 µM	18	15.6 µM	22.3	15.7 µM	22.8 µM	16.7		15.6 µM	6.13	4.93	8.43	4.4	10	4.5		4.35	2.29	7.37 µM	5.21
Clc1cccc(C2N3CCCCC3[C@@H]3c4[nH]c5ccccc5c4CCN23)c1 (some centres undefined)	> 100 µM			> 100	78.5 µM	69.4 µM	46.1	60.5 µM	30.8 µM											
Cc1nc2c(o1)C(=Nc1ccccc1)c1nc(C)oc1C2=Nc1ccccc1	52.1 µM	60.4	> 100 µM		> 100 µM	33.6 µM	> 100	72.6 µM	37.6 µM											
CN(/N=C/c1ccnc2ccccc12)c1c([N+](=O)[O-])cc([N+](=O)[O-])cc1[N+](=O)[O-]	> 100 µM	> 100	> 100 µM	> 100	> 100 µM	> 100 µM	> 100	> 100 µM												
Nc1ccccc1C(=O)CCC1C(=O)NC(=S)NC1=O	> 100 µM	> 100	> 100 µM	> 100	> 100 µM	> 100 µM	> 100	> 100 µM	> 100 µM											
O=C(/C=C/c1cccc([N+](=O)[O-])c1)c1ccc([N+](=O)[O-])cc1	> 100 µM	> 100	> 100 µM	> 100	> 100 µM	> 100 µM	> 100	> 100 µM	> 100 µM											
COC(=O)C1C(=O)O[C@@H](c2cc(OC)c(OC)cc2OC)C1C(=O)OC (mixture of isomers)	> 100 µM	> 100	> 100 µM	> 100	> 100 µM	> 100 µM	> 100	> 100 µM	> 100 µM											
COc1ccc(S(=O)(=O)N(CC(=O)O)c2ccccc2)cc1	> 100 µM	> 100	> 100 µM	> 100	> 100 µM	> 100 µM	> 100	> 100 µM												
Clc1cccc(-c2nnc(-c3nn(-c4ccccc4)c4nc5ccccc5nc34)o2)c1	> 100 µM	> 100	> 100 µM	> 100	> 100 µM	> 100 µM	> 100	> 100 µM	> 100 µM											
COC(=O)C1=CC2C=CC(C1C(=O)OC)C1C(C(=O)OC)=C(C(=O)OC)C(C(=O)OC)=C(C(=O)OC)C21OC (centres undefined)	> 100 µM	> 100	> 100 µM	> 100	> 100 µM	> 100 µM	> 100	> 100 µM	> 100 µM											
CC(=O)[CH-]C(=O)c1ccccc1.CC(=O)[CH-]C(=O)c1ccccc1.O=S(=O)([O-])c1cc([O-])c2c([O-])cc(S(=O)(=O)[O-])cc2c1.[Na+].[Zr+4]	> 100 µM	> 100		> 100	> 100 µM	> 100 µM	> 100	> 100 µM	> 100 µM	> 100		> 100	52.2	> 100	94.1	40.8	> 100			> 100
CCNC(=O)OCc1c(COC(=O)NCC)c(-c2ccc(Cl)c(Cl)c2)n2c1CCC2	48.7 µM		62.1 µM	36.1	24.3 µM	37.5 µM	25.7	56.3 µM	33.6 µM											
